The text below walks through data of PubChem BioAssay (NCI).

Each structure is given as a SMILES string.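 How tested: cells in 96-well plates exposed to compound for 48 hours at five concentrations. TGI: total growth inhibition.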

The test system of one test is CCRF-CEM leukemia. The test is described as follows: NCI-60 cell line screen, 48 h.
On to `O=C1CS(=O)(=O)C(c2cccc(Oc3ccccc3)c2)N1c1ccc(Cl)cc1` (stereo unspecified), for which the TGI was above 100 µM.

In turn, `O=C(O)CO[C@@]12C#C/C=C\C#C[C@@H]3N(C(=O)Oc4ccccc4)c4ccccc4[C@]14O[C@@]34CCC2` registered a TGI above 100 µM.

`CC1C2CC(C(S(=O)(=O)O)C2=O)C1(C)C` (stereo unspecified) showed a TGI above 100 µM.

`Cc1cccc(Cl)c1NCC(O)CN1CCN(C)CC1` (stereo unspecified) showed a TGI above 100 µM.

`Cc1nc2ccc(Br)cc2c(=O)n1-c1nnc(C(C)(C)C)s1` displayed a TGI above 10 µM.

The compound `COc1ccc(Cn2c(=O)c(OC)c(C)c3cc4ccccc4cc32)cc1` registered a TGI above 100 µM.

As to `N#Cc1c(-c2ccc(Cl)cc2)c2c(n(C3OC(CO)C(O)C(O)C3O)c1=S)CCCC2` (stereo unspecified), the TGI was above 100 µM.

The compound `COC(=O)C1Cc2cc3c(cc2C1=O)CCC3` (stereo unspecified) registered a TGI above 100 µM.

With `CN(/N=C/c1ccc(C(=O)O)cc1)C1=NCCCCN1`, the TGI was above 100 µM.

As to `C=CCCON(C(=O)OC(C)(C)C)c1ccccc1`, the TGI is above 100 µM.

With `CC[C@@H](C)[C@H](NC(=O)[C@H](Cc1ccccc1)NCC(F)(F)F)C(=O)OC(C)(C)C`, the TGI was above 100 µM.

As for `COC(=O)[C@@H]1C=C[C@H](OC2OC(COC(C)=O)C(OC(C)=O)C(OC(C)=O)C2OC(C)=O)n2c(=O)n(-c3ccccc3)c(=O)n21` (stereo partly specified), the TGI is 4.42 µM.

The compound `CC(=O)SCCC(NC(=S)Nc1ccccc1)P(=O)(Oc1ccccc1)Oc1ccccc1` (stereo unspecified) had a TGI above 100 µM.

`Nc1ccccc1CCN1CCN(CCCc2ccccc2)CC1` had a TGI above 100 µM.

Turning to `COc1ccc(-c2c(C(C)=O)c(-c3ccccc3)n(C3OC(CO)C(O)C(O)C3O)c(=S)c2C#N)cc1` (stereo unspecified), the TGI was above 100 µM.

`CCCCCCCC(CC(=O)NC(CO)C(=O)NC(CO)CC(C)C)OC(=O)CC(CCCCCCC)OC(=O)CC(CCCCCCC)OC1OC(C)C(O)C(OC2OC(C)C(OC(C)=O)C(O)C2O)C1O` (stereo unspecified) displayed a TGI of 14.2 µM.

`O=C(NN1C(=O)C(Cl)C1c1ccc(Cl)cc1)c1c(Cl)c(Cl)c(Cl)c(Cl)c1-c1nc2ccccc2[nH]1` (stereo unspecified) yielded a TGI above 100 µM.

For another test, the system named is DU-145 prostate. The test is described as follows: NCI-60 cell line screen, 48 h.
`O=C1CS(=O)(=O)C(c2cccc(Oc3ccccc3)c2)N1c1ccc(Cl)cc1` (stereo unspecified) displayed a TGI above 100 µM.

Compound `O=C(O)CO[C@@]12C#C/C=C\C#C[C@@H]3N(C(=O)Oc4ccccc4)c4ccccc4[C@]14O[C@@]34CCC2` had a TGI above 100 µM.

`CC(C)(C)C1=C(Br)C(C(C)(C)C)OP1(=O)O` (stereo unspecified) registered a TGI above 100 µM.

Take `CC1C2CC(C(S(=O)(=O)O)C2=O)C1(C)C` (stereo unspecified): the TGI was above 100 µM.

`N[C@@H]1CCN(c2c(F)cc3c(=O)c(C(=O)O)cn4c3c2Oc2c-4ccc3c2ccc2ccccc23)C1` gave a TGI above 100 µM.

For the compound `Cc1cccc(Cl)c1NCC(O)CN1CCN(C)CC1` (stereo unspecified), the TGI is above 100 µM.

With `CNC1(c2cc3ccccc3s2)CCCCC1`, the TGI was above 100 µM.

Compound `Cc1nc2ccc(Br)cc2c(=O)n1-c1nnc(C(C)(C)C)s1` returned a TGI above 10 µM.

Regarding `Cc1ccc(C2(O)CSC(=NC34CC5CC(CC(C5)C3)C4)N2C(P(=O)(O)O)P(=O)(O)O)cc1` (stereo unspecified), the TGI is above 100 µM.

With `CC1(C)C2CCC1(C)C(N/C(Sc1ccccc1)=C(/C(Cl)=C(Cl)Cl)[N+](=O)[O-])C2` (stereo unspecified), the TGI worked out at 61.1 µM.

Regarding `COc1ccc(Cn2c(=O)c(OC)c(C)c3cc4ccccc4cc32)cc1`, the TGI is above 100 µM.

In turn, `N#Cc1c(-c2ccc(Cl)cc2)c2c(n(C3OC(CO)C(O)C(O)C3O)c1=S)CCCC2` (stereo unspecified) came in with a TGI above 100 µM.

`COC(=O)C1Cc2cc3c(cc2C1=O)CCC3` (stereo unspecified) returned a TGI above 100 µM.

`CN(/N=C/c1ccc(C(=O)O)cc1)C1=NCCCCN1`: the TGI is above 100 µM.

As for `CCOC(=O)c1ccc(N=C/C=C(\Nc2ccc(C(=O)OCC)cc2)C23CC4CC(CC(C4)C2)C3)cc1`, the TGI is above 100 µM.

In turn, `C=CCCON(C(=O)OC(C)(C)C)c1ccccc1` returned a TGI above 100 µM.

`CC[C@@H](C)[C@H](NC(=O)[C@H](Cc1ccccc1)NCC(F)(F)F)C(=O)OC(C)(C)C` returned a TGI above 100 µM.

`COC(=O)[C@@H]1C=C[C@H](OC2OC(COC(C)=O)C(OC(C)=O)C(OC(C)=O)C2OC(C)=O)n2c(=O)n(-c3ccccc3)c(=O)n21` (stereo partly specified) came in with a TGI of 15.7 µM.

`CC(=O)SCCC(NC(=S)Nc1ccccc1)P(=O)(Oc1ccccc1)Oc1ccccc1` (stereo unspecified) had a TGI above 100 µM.

Regarding `CCOC(=O)Nc1cc2c(c(N)n1)N=C(c1ccc(OC)cc1)CN2`, the TGI came to 33.3 µM.

The compound `Nc1ccccc1CCN1CCN(CCCc2ccccc2)CC1` showed a TGI above 100 µM.

Take `CC(C)(C)C1CCC(=O)/C(=C/CC2CC(=O)N(c3ccccc3)C(=O)C2)C1` (stereo unspecified): the TGI is 40 µM.

As to `CC12C=CC(C)(C3C(=O)C4C(C(=O)C31)C1(C)C=CC4(C)S1=O)S2=O` (stereo unspecified), the TGI was above 100 µM.

In the case of `COc1ccc(-c2c(C(C)=O)c(-c3ccccc3)n(C3OC(CO)C(O)C(O)C3O)c(=S)c2C#N)cc1` (stereo unspecified), the TGI was above 100 µM.

In the case of `CCCCCCCC(CC(=O)NC(CO)C(=O)NC(CO)CC(C)C)OC(=O)CC(CCCCCCC)OC(=O)CC(CCCCCCC)OC1OC(C)C(O)C(OC2OC(C)C(OC(C)=O)C(O)C2O)C1O` (stereo unspecified), the TGI turned out to be 24 µM.

The compound `O=C(NN1C(=O)C(Cl)C1c1ccc(Cl)cc1)c1c(Cl)c(Cl)c(Cl)c(Cl)c1-c1nc2ccccc2[nH]1` (stereo unspecified) registered a TGI of 42.6 µM.

The next test has as its system SK-MEL-28 melanoma. The test is described as follows: NCI-60 cell line screen, 48 h.
Regarding `O=C1CS(=O)(=O)C(c2cccc(Oc3ccccc3)c2)N1c1ccc(Cl)cc1` (stereo unspecified), the TGI is above 100 µM.

For the compound `O=C(O)CO[C@@]12C#C/C=C\C#C[C@@H]3N(C(=O)Oc4ccccc4)c4ccccc4[C@]14O[C@@]34CCC2`, the TGI is above 100 µM.

Turning to `CC(C)(C)C1=C(Br)C(C(C)(C)C)OP1(=O)O` (stereo unspecified), the TGI is above 100 µM.

Consider `CC1C2CC(C(S(=O)(=O)O)C2=O)C1(C)C` (stereo unspecified), for which the TGI is above 100 µM.

`N[C@@H]1CCN(c2c(F)cc3c(=O)c(C(=O)O)cn4c3c2Oc2c-4ccc3c2ccc2ccccc23)C1`: the TGI is above 100 µM.

`Cc1cccc(Cl)c1NCC(O)CN1CCN(C)CC1` (stereo unspecified) returned a TGI above 100 µM.

Turning to `Cc1nc2ccc(Br)cc2c(=O)n1-c1nnc(C(C)(C)C)s1`, the TGI was above 10 µM.

`Cc1ccc(C2(O)CSC(=NC34CC5CC(CC(C5)C3)C4)N2C(P(=O)(O)O)P(=O)(O)O)cc1` (stereo unspecified) yielded a TGI above 100 µM.

Turning to `CC1(C)C2CCC1(C)C(N/C(Sc1ccccc1)=C(/C(Cl)=C(Cl)Cl)[N+](=O)[O-])C2` (stereo unspecified), the TGI came to 24.9 µM.

On to `COc1ccc(Cn2c(=O)c(OC)c(C)c3cc4ccccc4cc32)cc1`, for which the TGI was above 100 µM.

Turning to `N#Cc1c(-c2ccc(Cl)cc2)c2c(n(C3OC(CO)C(O)C(O)C3O)c1=S)CCCC2` (stereo unspecified), the TGI is above 100 µM.

The compound `COC(=O)C1Cc2cc3c(cc2C1=O)CCC3` (stereo unspecified) registered a TGI above 100 µM.

Consider `CN(/N=C/c1ccc(C(=O)O)cc1)C1=NCCCCN1`, for which the TGI was above 100 µM.

`CCOC(=O)c1ccc(N=C/C=C(\Nc2ccc(C(=O)OCC)cc2)C23CC4CC(CC(C4)C2)C3)cc1` showed a TGI above 100 µM.

Take `C=CCCON(C(=O)OC(C)(C)C)c1ccccc1`: the TGI was above 100 µM.

In the case of `CC[C@@H](C)[C@H](NC(=O)[C@H](Cc1ccccc1)NCC(F)(F)F)C(=O)OC(C)(C)C`, the TGI was above 100 µM.

In turn, `COC(=O)[C@@H]1C=C[C@H](OC2OC(COC(C)=O)C(OC(C)=O)C(OC(C)=O)C2OC(C)=O)n2c(=O)n(-c3ccccc3)c(=O)n21` (stereo partly specified) registered a TGI of 5.59 µM.

Take `CC(=O)SCCC(NC(=S)Nc1ccccc1)P(=O)(Oc1ccccc1)Oc1ccccc1` (stereo unspecified): the TGI is above 100 µM.

As for `Nc1ccccc1CCN1CCN(CCCc2ccccc2)CC1`, the TGI is above 100 µM.

With `CC(C)(C)C1CCC(=O)/C(=C/CC2CC(=O)N(c3ccccc3)C(=O)C2)C1` (stereo unspecified), the TGI was found to be 47.4 µM.

Regarding `COc1ccc(-c2c(C(C)=O)c(-c3ccccc3)n(C3OC(CO)C(O)C(O)C3O)c(=S)c2C#N)cc1` (stereo unspecified), the TGI is above 100 µM.

`CCCCCCCC(CC(=O)NC(CO)C(=O)NC(CO)CC(C)C)OC(=O)CC(CCCCCCC)OC(=O)CC(CCCCCCC)OC1OC(C)C(O)C(OC2OC(C)C(OC(C)=O)C(O)C2O)C1O` (stereo unspecified) yielded a TGI of 19.4 µM.

`O=C(NN1C(=O)C(Cl)C1c1ccc(Cl)cc1)c1c(Cl)c(Cl)c(Cl)c(Cl)c1-c1nc2ccccc2[nH]1` (stereo unspecified) returned a TGI of 78.7 µM.
